Key:
Settings in all cases: incubation time: 72 h
BT-474 [1] = assay: normalised response (% of control), CellTox Green; higher = less cell death (100 = DMSO, 0 = benzethonium chloride kill control)
Outline: (§1)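 For each plate, 0.1 % DMSO was set to 100 and a positive kill control to 0. Breast cancer cell lines (20 µl suspension) were seeded into 384-well plates already holding compound at 5 concentrations in 10-fold steps over a 10,000-fold range chosen per compound, and incubated for 72 h. CellTox Green fluorescence at 485/520 nm was read before CellTiter-Glo luminescence, which followed 10 min at room temperature. Each value is the normalised signal at one concentration.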

BT-549 [2] = assay: as above
Outline: as §1

CAL-120 [3] = assay: as above
Outline: as §1

CAL-148 [4] = assay: as above
Outline: as §1

CAL-51 [5] = assay: as above
Outline: as §1

CAL-85-1 [6] = assay: as above
Outline: as §1

DU-4475 [7] = assay: as above
Outline: as §1

HCC1143 [8] = assay: as above
Outline: as §1

HCC1599 [9] = assay: as above
Outline: as §1

HCC1937 [10] = assay: as above
Outline: as §1

HDQ-P1 [11] = assay: as above
Outline: as §1

Hs578T [12] = assay: as above
Outline: as §1

MCF-10A [13] = assay: as above
Outline: as §1

MDA-MB-231 [14] = assay: as above
Outline: as §1

MDA-MB-436 [15] = assay: as above
Outline: as §1

MDA-MB-453 [16] = assay: as above
Outline: as §1

MDA-MB-468 [17] = assay: as above
Outline: as §1

MFM-223 [18] = assay: as above
Outline: as §1

BT-474 [19] = assay: normalised response (% of control), CellTiter-Glo; higher = more viable cells (100 = DMSO, 0 = benzethonium chloride kill control)
Description: (§2)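 DSRT, 72 h incubation, CellTox Green / CellTiter-Glo readout. Signal is normalised to DMSO and benzethonium chloride controls. Value is the normalised response at the highest dose.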

BT-549 [20] = assay: as above
Description: as §2

CAL-120 [21] = assay: as above
Description: as §2

CAL-148 [22] = assay: as above
Description: as §2

CAL-51 [23] = assay: as above
Description: as §2

CAL-85-1 [24] = assay: as above
Description: as §2

DU-4475 [25] = assay: as above
Description: as §2

HCC1143 [26] = assay: as above
Description: as §2

HCC1599 [27] = assay: as above
Description: as §2

HCC1937 [28] = assay: as above
Description: as §2

HDQ-P1 [29] = assay: as above
Description: as §2

Hs578T [30] = assay: as above
Description: as §2

MCF-10A [31] = assay: as above
Description: as §2

MDA-MB-231 [32] = assay: as above
Description: as §2

MDA-MB-436 [33] = assay: as above
Description: as §2

MDA-MB-453 [34] = assay: as above
Description: as §2

MDA-MB-468 [35] = assay: as above
Description: as §2

MFM-223 [36] = assay: as above
Description: as §2

SK-BR-3 = assay: as above
Description: as §2

Row | Structure (SMILES) | normalised response (BT-474 [1]) [%] | normalised response (BT-549 [2]) [%] | normalised response (CAL-120 [3]) [%] | normalised response (CAL-148 [4]) [%] | normalised response (CAL-51 [5]) [%] | normalised response (CAL-85-1 [6]) [%] | normalised response (DU-4475 [7]) [%] | normalised response (HCC1143 [8]) [%] | normalised response (HCC1599 [9]) [%] | normalised response (HCC1937 [10]) [%] | normalised response (HDQ-P1 [11]) [%] | normalised response (Hs578T [12]) [%] | normalised response (MCF-10A [13]) [%] | normalised response (MDA-MB-231 [14]) [%] | normalised response (MDA-MB-436 [15]) [%] | normalised response (MDA-MB-453 [16]) [%] | normalised response (MDA-MB-468 [17]) [%] | normalised response (MFM-223 [18]) [%] | normalised response (BT-474 [19]) [%] | normalised response (BT-549 [20]) [%] | normalised response (CAL-120 [21]) [%] | normalised response (CAL-148 [22]) [%] | normalised response (CAL-51 [23]) [%] | normalised response (CAL-85-1 [24]) [%] | normalised response (DU-4475 [25]) [%] | normalised response (HCC1143 [26]) [%] | normalised response (HCC1599 [27]) [%] | normalised response (HCC1937 [28]) [%] | normalised response (HDQ-P1 [29]) [%] | normalised response (Hs578T [30]) [%] | normalised response (MCF-10A [31]) [%] | normalised response (MDA-MB-231 [32]) [%] | normalised response (MDA-MB-436 [33]) [%] | normalised response (MDA-MB-453 [34]) [%] | normalised response (MDA-MB-468 [35]) [%] | normalised response (MFM-223 [36]) [%] | normalised response (SK-BR-3) [%]
1 | Nc1ncnc2c1c(COc1cccc(Cl)c1)nn2C1CCOCC1 (10000 nM) | 106 | 110 | 109 | 96 | 109 | 91.3 | 103 | 104 | 106 | 103 | 109 | 110 | 86.3 | 106 | 79.2 | 104 | 112 | 98.8 | 86.8 | 88.1 | 107 | 113 | 101 | 90.2 | 101 | 98.2 | 98.6 | 95.3 | 92.2 | 100 | 89.3 | 89.6 | 89.3 | 88.3 | 92.3 | 96.8 | 102
2 | COc1ccc(-c2ccc3c(N4CCOC[C@@H]4C)nc(N4CCOC[C@@H]4C)nc3n2)cc1CO [AZD8055] (10000 nM) | 48 | 111 | 102 | 56.6 | 76.6 | 88.1 | 82.6 | -36.9 | 86.4 | 97.3 | 99.7 | 94.8 | 76.3 | 97.3 | 68.7 | 92.3 | 27.8 | 83.7 | 42.5 | 19.9 | 18.8 | 14.6 | 15.9 | 27.6 | 15.3 | 25.3 | 77.3 | 38.3 | 29 | 22.4 | 21.4 | 33.5 | 46.4 | 27.2 | 21 | 26.4 | 18.2
3 | C[C@]12CC[C@H](O)CC1=CC[C@@H]1[C@@H]2CC[C@]2(C)C(c3cccnc3)=CC[C@@H]12 [Abiraterone] (5000 nM) | 99.7 | 128 | 98 | 87.5 | 96.6 | 77.8 | 111 | 107 | 113 | 120 | 62.7 | 116 | 76.5 | 122 | 111 | 110 | 151 | 101 | 97 | 96.4 | 103 | 104 | 98.4 | 112 | 99.6 | 97.1 | 107 | 97.7 | 104 | 102 | 109 | 101 | 100 | 112 | 99.3 | 103 | 104
4 | CN(C)CCN1C(=O)c2cccc3cc(N)cc(c23)C1=O [Amonafide] (10000 nM) | 97.8 | 122 | 101 | 32.8 | 23.1 | 63.4 | 83.8 | 93.5 | 98 | 120 | 87 | 114 | 77 | 111 | 63.8 | 112 | 125 | 100 | 43.9 | 47 | 52.3 | 25.4 | 17.7 | 47.6 | 14.6 | 52.3 | 57.2 | 55.7 | 53.1 | 61.7 | 45 | 39.2 | 38.8 | 77.8 | 43.5 | 69.7 | 31.9
5 | CC(C)(C#N)c1cc(Cn2cncn2)cc(C(C)(C)C#N)c1 [Anastrozole] (10000 nM) | 93 | 98.8 | 99.1 | 105 | 100 | 92.9 | 95.3 | – | 106 | 69.8 | 105 | 77.6 | 105 | – | 107 | 88 | 116 | 89.5 | 97.5 | 102 | 98.3 | 104 | 98.6 | 104 | 103 | 102 | 99.8 | 101 | 100 | 100 | 101 | 99.9 | 96 | 108 | 105 | 103 | 108
6 | CC(C)c1c(C(=O)Nc2ccccc2)c(-c2ccccc2)c(-c2ccc(F)cc2)n1CC[C@@H](O)C[C@@H](O)CC(=O)O [Atorvastatin] (10000 nM) | 104 | 102 | 45.3 | 99.2 | -23.5 | 86.1 | 98 | 101 | 103 | 92.4 | 85.6 | 7.6 | 1.75 | -37.9 | 83 | 88 | 121 | 101 | 11.1 | 70 | 47.4 | 94.8 | 21.2 | 52.7 | 87.4 | 55.3 | 83.4 | 68.3 | 44 | 37.8 | 4.77 | 3.78 | 71.4 | 89.7 | 19.1 | 76.1 | 79.8
7 | O=C(O)CCCc1ccc(N(CCCl)CCCl)cc1 [Chlorambucil] (10000 nM) | 99.8 | 78.8 | 102 | 95.3 | 81.7 | 82.5 | 98.1 | 102 | 105 | 105 | 104 | 124 | 83 | 104 | 66.2 | 102 | 141 | 99.2 | 96 | 91.9 | 100 | 103 | 117 | 96.2 | 96.9 | 96.9 | 89.3 | 94.9 | 101 | 103 | 97.3 | 97.6 | 81.3 | 123 | 94.1 | 108 | 101
8 | Cn1c(=O)n(-c2ccc(C(C)(C)C#N)cc2)c2c3cc(-c4cnc5ccccc5c4)ccc3ncc21 [Dactolisib] (1000 nM) | 101 | 112 | 104 | -65 | 81.3 | 64.6 | 102 | 130 | 107 | 45.6 | 115 | 101 | 87.3 | 126 | 112 | 104 | 170 | 28.8 | 61.8 | 25.9 | 26.2 | 33.1 | 23.5 | 43 | 30.4 | 37.5 | 82 | 58 | 52.4 | 33.9 | 52.3 | 51.3 | 57 | 37.9 | 31.5 | 42.3 | 27.2
9 | Nc1nc(OCc2cc(Br)cs2)c2[nH]cnc2n1 [Lomeguatrib] (10000 nM) | 95.9 | 96.6 | 104 | 69.2 | 89.2 | 114 | 97.9 | 98 | 99.2 | – | 104 | 108 | 75.2 | 112 | 94.1 | 92.8 | 161 | 98.5 | 98.9 | 93.5 | 101 | 101 | 67.2 | 97 | 102 | 94.5 | 106 | 103 | 96.5 | 98.7 | 97.4 | 98.5 | 90.6 | 91.3 | 87.1 | 91.8 | 93.9
